Data taken from patent US20040009601A1, “Methods for the regeneration and transformation of cotton” (The Regents of the University of California, priority 2002, published 2004).

Tested on: Maxxa hypocotyl explants
Experiment: Callus induction from Maxxa hypocotyl explants, orthogonal array L9 factorial experiment
Format: cell-based, Gossypium hirsutum L. cv. Maxxa
Details: for Σ RG1: regeneration potential, mean Y of factor 1: factor 1 = 0 mg l-1 of the hormone; for Σ RG2: regeneration potential, mean Y of factor 2: factor 2 = 2,4-D 0.05, NAA 1.0, kinetin 0.5 mg l-1; for Σ RG3: regeneration potential, mean Y of factor 3: factor 3 = 2,4-D 0.1, NAA 2.0, kinetin 1.0 mg l-1; for Σ RG: mean of Σ RG1, Σ RG2 and Σ RG3: per hormone over the three factor levels
Method: Hypocotyl explants ˜5 mm in length were excised from 7-10 day-old seedlings under sterile conditions. Explants were placed in a 25×100-mm petri dish (one seedling per plate) containing ˜30 ml of callus induction medium, sealed with parafilm and cultured at 28±2° C. under a combination of cool white and full spectrum fluorescent lights with a 16-hour light/8-hour dark cycle for 3 to 4 weeks to induce callus formation.
Initial experiments were conducted using MS2NK (2 mg 1^−1 NAA substituted for 2,4-D in MS2DK, Trolinder and Goodin, 1987), a medium used for callus induction in the elite regenerable Coker 312 line. To optimize a callus induction medium for Maxxa, a factorial experiment using an Orthogonal Array L9 (3^4) experimental design ((Taguchi, Introduction to Quality Engineering, Tokyo, Japan (1986)) was performed to determine the best hormonal regime for induction of callus capable of undergoing somatic embryogenesis. The optimal combination of NAA, 2,4-D and kinetin was evaluated at varying concentrations (Table 1) in basal MS medium (Murashige and Skoog, Physiol. Plant. 15:473-497 (1962)) in four independent experiments. In each experiment, 18 hypocotyl explants were excised from 24-48 individual seedlings to provide two explants per seedling per treatment. Each replicated treatment was evaluated for the ability to proliferate a friable callus that was yellowish-green to creamy in color, granular in texture, and readily dispersed in liquid medium. Calli characteristics were scored at 3 weeks and 6 weeks for color, texture, dispersiveness in liquid media, and cell/callus size as the parameters for evaluation. Based on these criteria, the optimized Maxxa callus induction medium (MCIM) selected for cotton regeneration is comprised of MS salts (GibcoBRL Cat no. 11117-074) supplemented with 100 mg 1^−1 myo-inositol, B5 vitamins (10 mg 1^−1 thiamine-HCl; 1 mg 1^−1 nicotinic acid; 1 mg 1^−1 pyridoxine), 0.75 g 1^−1 MgCl2, 30 g 1^−1 glucose, 2.0 mg 1^−1 NAA and 0.05 mg 1^−1 2,4-D. The medium was adjusted to pH 5.8 before adding agar (2.5 g 1^−1 Phytagel).
A factorial experiment using an orthogonal array L9 (3^4) design was conducted to determine optimal conditions for callus induction and somatic embryogenesis by Maxxa hypocotyl explants. Different hormonal combinations of auxin (NAA and/or 2,4-D) and cytokinin (kinetin) were tested at varying concentrations (Table 1) in basal MS medium (Murashige and Skoog, supra). Each of the 9 replicated treatments was scored for callus initiation efficiency (Y) based on two components—(I) the mean of the number of explants producing good quality callus and (II) embryogenic potential, that is, the developmental transition of undifferentiated callus to somatic embryogenesis—expressed as a percent (Table 1). The production and proliferation of callus considered of “good quality” was based on four criteria: color, texture, dispersiveness in liquid media, and size/shape of undifferentiated cells. Within each category, each callus was scored with a rating of 1 to 4 based on the following parameters: Color—dark green (4) to parrot-green/creamy (1), Texture—hard and compact (4) to soft and friable (1), Dispersiveness—intact (4) to readily dispersed cell clumps (1) in liquid medium, Size/Shape—small cells/compact callus (<1 mm) (4) to nodular, “grainy” callus (>2 mm) (1). Good quality callus received ratings of “1” in each category. The embryogenic potential (II) of Y represents the ability of undifferentiated parenchymal cells to organize into meristematic centers and successfully undergo somatic embryogenesis. The factors considered in determining II/Y included the formation of organized cell clusters in embryogenic cultures, the types of embryos produced (globular, heart-shaped, torpedo), and the color of the somatic embryo (white/transparent vs. yellow/opaque). […]

| Structure (SMILES) | Importance of the hormone for callus induction from Maxxa hypocotyls, judged from Σ RG | Σ RG1: regeneration potential, mean Y of factor 1 [%] | Σ RG2: regeneration potential, mean Y of factor 2 [%] | Σ RG3: regeneration potential, mean Y of factor 3 [%] | Σ RG: mean of Σ RG1, Σ RG2 and Σ RG3 [%] |
| --- | --- | --- | --- | --- | --- |
| O=C(O)COc1ccc(Cl)cc1Cl [2,4-D, 2,4-dichlorophenoxyacetic acid] | essential for callus induction | 5.77 | 61.87 | 77.07 | 71.30 |
| c1coc(CNc2ncnc3[nH]cnc23)c1 [Kinetin, kinetin] | not critical | 63.27 | 32.78 | 46.65 | 32.49 |
